We go through three compounds from patent US7323490B2, “Pyrrole compounds and uses thereof” (Ambit Biosciences Corporation, priority 2003, dated 2008).

The target of one experiment is T1, CLB2 (Homo sapiens, UniProt P22676).
T1 construct: made in house; host or cells: T7 phage amplified in E. coli
T1 sequence (P22676 1-271): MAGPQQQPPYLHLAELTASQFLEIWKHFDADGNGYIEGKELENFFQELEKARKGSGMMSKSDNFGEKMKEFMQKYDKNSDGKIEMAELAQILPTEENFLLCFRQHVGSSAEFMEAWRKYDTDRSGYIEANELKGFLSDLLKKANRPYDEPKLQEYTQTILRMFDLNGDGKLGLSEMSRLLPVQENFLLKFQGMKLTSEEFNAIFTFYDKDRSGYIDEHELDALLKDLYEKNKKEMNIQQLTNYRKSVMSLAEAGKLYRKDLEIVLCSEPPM
Description: T7 phage display competition binding assay (immobilized atorvastatin), CLB2. As to conditions: soluble competitor vs atorvastatin-coated affinity matrix; T7 phage displaying CLB2. The source says: (§1) The T7 phage displaying human PDE6D and CLB2 were obtained following the procedure of WO 01/18234, published Mar. 15, 2001, and U.S. patent applications Ser. No. 10/115,442, “Phage Display Affinity Filter and Forward Screen,” filed Apr. 2, 2002 and Ser. No. 10/214,654, “Uncoupling DNA Insert Propagation and Protein Display,” filed Aug. 7, 2002. […] The phage eluate was then amplified by growth in E. coli and the affinity enrichment procedure was repeated.
(§2) The dissociation constants, Kd's, for the interaction between the pyrrole compounds and the novel targets were obtained following the procedure of the co-pending patent applications U.S. Ser. Nos. 10/115,442, “Phage Display Affinity Filter and Forward Screen,” filed Apr. 2, 2002 and 60/480,587, “Protein Family Profiling Tool and Methods,” filed Jun. 20, 2003.

A further experiment addresses T2, HMG-CoA reductase (Homo sapiens, UniProt P04035).
T2 sequence (P04035 1-888): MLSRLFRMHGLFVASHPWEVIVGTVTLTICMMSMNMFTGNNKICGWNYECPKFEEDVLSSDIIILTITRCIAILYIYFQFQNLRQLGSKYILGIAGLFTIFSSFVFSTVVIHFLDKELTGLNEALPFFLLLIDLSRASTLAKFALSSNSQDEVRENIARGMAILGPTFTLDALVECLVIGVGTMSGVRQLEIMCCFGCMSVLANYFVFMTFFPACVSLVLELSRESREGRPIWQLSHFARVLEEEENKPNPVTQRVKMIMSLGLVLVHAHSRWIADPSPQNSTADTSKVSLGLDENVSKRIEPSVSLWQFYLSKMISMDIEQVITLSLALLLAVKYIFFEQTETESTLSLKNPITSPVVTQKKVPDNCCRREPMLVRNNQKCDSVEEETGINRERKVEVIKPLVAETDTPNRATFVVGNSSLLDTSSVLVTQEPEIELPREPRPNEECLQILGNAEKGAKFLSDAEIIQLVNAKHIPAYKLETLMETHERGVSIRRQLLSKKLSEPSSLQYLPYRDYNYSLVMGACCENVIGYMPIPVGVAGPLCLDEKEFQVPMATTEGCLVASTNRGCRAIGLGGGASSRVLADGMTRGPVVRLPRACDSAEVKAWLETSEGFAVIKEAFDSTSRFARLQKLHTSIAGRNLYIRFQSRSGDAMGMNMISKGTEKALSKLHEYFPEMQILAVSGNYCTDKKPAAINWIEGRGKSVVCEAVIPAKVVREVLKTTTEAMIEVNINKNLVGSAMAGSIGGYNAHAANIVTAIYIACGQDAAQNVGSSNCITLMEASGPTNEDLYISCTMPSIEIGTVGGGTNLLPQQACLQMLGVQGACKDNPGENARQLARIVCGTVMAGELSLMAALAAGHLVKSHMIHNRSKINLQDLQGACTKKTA
Description: enzymatic activity-based HMG-CoA reductase assay. Type of experiment: biochemical. As to conditions: concentrations up to 4 μM. On the procedure: In addition, compounds 781430, 781066, 780780, 780754, 779974, 781456, 782236, 782756, 783250 and 780520 were tested in enzymatic activity-based HMG-CoA reductase assays. […] Blank cells indicate there was no detectable interaction while the “nd” designation indicates the Kd was not determined.

Experiment [1] has as its target T3, PDE6D (Homo sapiens, UniProt O43924). The experiment can be described thus: T7 phage display competition binding assay (immobilized atorvastatin), PDE6D. The conditions noted are these: soluble competitor vs atorvastatin-coated affinity matrix; T7 phage displaying human PDE6D. More on the design: made in house; host or cells: T7 phage amplified in E. coli.
Description: as §1, §2

Experiment [2] concerns the target T3, PDE6D. The experiment can be described thus: Binding assay with E. coli-expressed human PDE6D. More on the design: made in house; host or cells: T7 phage amplified in E. coli. As to conditions: 10 μM competitors; dot blot. As for the experimental part:
The full-length coding sequence for human PDE6D was cloned into the pRSET vector for E. coli expression. The PDE6D coding sequence was fused in-frame with a His tag for purification purposes. […] The experiments were performed in duplicate. The data were obtained by loading the eluates from the binding experiment on a dot blot apparatus and subsequent detection with a PDE6D-specific antibody.

The next experiment deals with T4, NQO2 (Rattus norvegicus, UniProt Q6AY80).
T4 construct: from tissue; host or cells: rat liver or brain protein extract
T4 sequence (Q6AY80 1-231): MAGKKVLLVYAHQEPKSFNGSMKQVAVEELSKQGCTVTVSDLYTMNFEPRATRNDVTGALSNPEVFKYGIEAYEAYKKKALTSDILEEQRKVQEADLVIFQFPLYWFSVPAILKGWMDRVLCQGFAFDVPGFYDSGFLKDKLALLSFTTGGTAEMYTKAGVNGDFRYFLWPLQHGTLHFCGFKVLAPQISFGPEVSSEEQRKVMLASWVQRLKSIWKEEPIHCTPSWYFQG
The experiment can be described thus: NQO2 binding pocket competition experiment, rat brain protein extract. As to conditions: competitors menadione, quercetin, FAD. The source says:
The crystal structure of the NQO2 protein has shown that this protein contains three distinct binding pockets. […] The data were obtained by loading the pooled eluates on a SDS-PAGE gel followed by silver staining.

Another experiment deals with T5, rat liver NQO2 (Rattus norvegicus, UniProt Q6AY80).
T5 construct: from tissue; host or cells: rat liver protein extract
T5 sequence (Q6AY80 1-231): T4 sequence (Q6AY80 1-231)
The experiment can be described thus: Binding curve assay, rat liver NQO2 and atorvastatin bait. The conditions noted are these: rat liver extract; semi-quantitative, densitometric scanning of silver-stained gel; read-out: apparent Kd NQO2.

The target in experiment [3] is T6, PDE6D::HA11 fusion protein (Homo sapiens, UniProt O43924).
T6 construct: made in house; host or cells: coupled transcription-translation in rabbit reticulocyte lysate (pTNT vector)
The experiment can be described thus: Binding assay with rabbit reticulocyte lysate-produced human PDE6D. The conditions noted are these: absence or presence of 10 μM non-immobilized atorvastatin; dot blot.

Regarding `CC(C)c1[nH]c(-c2ccc(F)cc2)c(-c2ccccc2)c1C(=O)Nc1ccccc1` [Compound 781430], the Kd on CLB2 is 940 nM; on PDE6D [1], 75 nM. Also, the “inhibition of the activity of HMG-CoA reductase” value against HMG-CoA reductase is on record as “none of the tested compounds inhibited”.
In the case of `CC(C)c1c(C(=O)Nc2ccccc2)c(-c2ccccc2)c(-c2ccc(F)cc2)n1CC(O)C(O)C(O)C(O)CO` (stereo not drawn) [Compound 782236], the “inhibition of the activity of HMG-CoA reductase” value on HMG-CoA reductase is reported as “none of the tested compounds inhibited”. The compound also showed a Kd at PDE6D [1] of 269 nM.
With `CC(C)c1c(C(=O)Nc2ccccc2)c(-c2ccccc2)c(-c2ccc(F)cc2)n1CC[C@@H](O)C[C@@H](O)CC(=O)O` [atorvastatin, reference compound], the “binding of E. coli expressed human PDE6D to immobilized atorvastatin bait” value at PDE6D [2] was “E. coli expressed human PDE6D binds to atorvastatin”. Moreover, the NQO2 binding pocket entry at NQO2 is on record as “binds the electron donor NRH pocket”. Further, on rat liver NQO2, the Kd is approximately 500 nM. In addition, in experiment [3], the “binding of PDE6D::HA11 fusion protein to immobilized atorvastatin bait” value was “PDE6D bound to atorvastatin”.
